Results published in ChEMBL document CHEMBL5724914, “Linking interpersonal differences in gut microbiota composition and drug biotransformation activity” (2024).

How the values were obtained:
[1] = (§1) The drug is tested on WLS-027 corresponding to human gut metagenome with ENA study accession number: PRJEB37062 and ENA sample accession number: ERS12561744 for biotransformation under anaerobic condition. The drug concentrations were measured over 9 timepoints collected between 0 and 24 hours of incubation by liquid-chromatography-coupled mass spectrometry (LC–MS); settings: 2 µM
[2] = as §1, with “WLS-006” for “WLS-027”, “ERS12561741” for “ERS12561744”; settings: 2 µM
[3] = as §1, with “WLS-038” for “WLS-027”, “ERS12561745” for “ERS12561744”; settings: 2 µM
[4] = as §1, with “Z-026” for “WLS-027”, “to” for “to human gut”, “ERS12561825” for “ERS12561744”; settings: 2 µM
[5] = as §1, with “Z-021” for “WLS-027”, “to” for “to human gut”, “ERS12561820” for “ERS12561744”; settings: 2 µM
[6] = human gut metagenome, 24 h, 2 µM
[7] = human gut metagenome, 24 h, 2 µM; remark: listed apart in the source
[8] = human gut metagenome, 24 h, 2 µM; remark: listed apart in the source
[9] = human gut metagenome, 24 h, 2 µM; remark: listed apart in the source
[10] = as §1, with “Z-001” for “WLS-027”, “mouse” for “human”, “ERS12561801” for “ERS12561744”; settings: 2 µM
[11] = human gut metagenome, 24 h, 2 µM; remark: listed apart in the source
[12] = human gut metagenome, 24 h, 2 µM; remark: listed apart in the source
[13] = as §1, with “WLS-370” for “WLS-027”, “ERS12561793” for “ERS12561744”; settings: 2 µM
[14] = human gut metagenome, 24 h, 2 µM; remark: listed apart in the source
[15] = as §1, with “Z-025” for “WLS-027”, “rabbit” for “human”, “ERS12561824” for “ERS12561744”; settings: 2 µM
[16] = human gut metagenome, 24 h, 2 µM; remark: listed apart in the source
[17] = human gut metagenome, 24 h, 2 µM; remark: listed apart in the source
[18] = as §1, with “WLS-010” for “WLS-027”, “ERS12561743” for “ERS12561744”; settings: 2 µM
[19] = human gut metagenome, 24 h, 2 µM; remark: listed apart in the source
[20] = as §1, with “Z-006” for “WLS-027”, “mouse” for “human”, “ERS12561806” for “ERS12561744”; settings: 2 µM

Measured: Bacterial Biotransformation
Further: call rule not given here.

OC(Cn1cncn1)(Cn1cncn1)c1ccc(F)cc1F [FLUCONAZOLE]
Compound metabolized: [1] | [2] | [5] | [7] | [9] | [11] | [12] | [16] | [17]
Compound NOT metabolized: all other assays above

CNCCC(Oc1ccc(C(F)(F)F)cc1)c1ccccc1 (stereo not given) [FLUOXETINE]
Compound metabolized: [13] | [16]
Compound NOT metabolized: all other assays above

O=C(CCCN1CCC(O)(c2ccc(Cl)cc2)CC1)c1ccc(F)cc1 [HALOPERIDOL]
Compound metabolized: [1] | [2] | [11]
Compound NOT metabolized: all other assays above

CCCCC1=NC2(CCCC2)C(=O)N1Cc1ccc(-c2ccccc2-c2nnn[nH]2)cc1 [IRBESARTAN]
Compound NOT metabolized: [4] | [5] | [15]
Compound metabolized: all other assays above

NC(CO)(CO)CO.O=C(c1ccccc1)c1ccc2n1CCC2C(=O)O (stereo not given) [KETOROLAC TROMETHAMINE]
Compound NOT metabolized: [4] | [10] | [15] | [20]
Compound metabolized: all other assays above

CC[C@H](C)C(=O)O[C@H]1C[C@@H](C)C=C2C=C[C@H](C)[C@H](CC[C@@H]3C[C@@H](O)CC(=O)O3)[C@H]21 [LOVASTATIN]
Compound metabolized: [4] | [5] | [15]
Compound NOT metabolized: all other assays above

CN1C(=O)CC(C)(c2ccccc2)C1=O (stereo not given) [METHSUXIMIDE]
Compound metabolized: [5] | [9]
Compound NOT metabolized: all other assays above
